Values quoted from earlier work as cited in article PMC7395068, “The evolution of strategies to minimise the risk of human drug-induced liver injury (DILI) in drug discovery and development” (Archives of Toxicology, 2020).
Like-named read-outs stand apart in the source and are kept apart here.

Columns and labels:
[1] = cited from earlier work
[2] = ref Chen 2016; cited from earlier work
[3] = test system: primary human hepatocytes, NIH3T3 fibroblasts, BSEP, CYP3A4; conditions: cited from earlier work
[4] = In vitro Assay, ref Schadt 2015

O=C1CN=C(c2ccccc2Cl)c2cc([N+](=O)[O-])ccc2N1 [clonazepam]
-VE: In vivo DILI ([1]; ref Schadt 2015) | Cellular toxicity (3T3 cells) [3] | Combined Assay [3] | GSH adduct HML [3] | Hepatocyte cellular toxicity [3] | MitoTox 3T3 [3] | TDI CYP3A4 [3] | hBSEP inhibition [3]
vLess-DILI-Concern: DILI severity category [2]
+VE: DILI +VE (5-8), DILI -VE (-4) [2]

NCC(CC(=O)O)c1ccc(Cl)cc1 (stereo not shown) [baclofen]
+VE: DILI +VE (5-8), DILI -VE (-4) [2]
vLess-DILI-Concern: DILI severity category [2]
-VE: In vivo DILI ([1]; ref Schadt 2015) | Cellular toxicity (3T3 cells) [3, 4] | Combined Assay [3, 4] | GSH adduct HML [3, 4] | Hepatocyte cellular toxicity [3, 4] | MitoTox 3T3 [3, 4] | TDI CYP3A4 [3, 4] | hBSEP inhibition [3, 4]

CCCCc1oc2ccc(NS(C)(=O)=O)cc2c1C(=O)c1ccc(OCCCN(CCCC)CCCC)cc1 [dronedaron]
-VE: Combined Assay [3, 4] | GSH adduct HML [3, 4] | Hepatocyte cellular toxicity [3, 4] | MitoTox 3T3 [3, 4] | TDI CYP3A4 [3, 4] | hBSEP inhibition [3, 4]
+VE: In vivo DILI ([1]; ref Schadt 2015) | Cellular toxicity (3T3 cells) [3, 4]

CCCc1nc(C(C)(C)O)c(C(=O)O)n1Cc1ccc(-c2ccccc2-c2nnn[nH]2)cc1 [olmesartan]
-VE: In vivo DILI ([1]; […]) | In vivo DILI ([1]; ref Schadt 2015) | DILI +VE (5-8), DILI -VE (-4) [2] | Cellular toxicity (3T3 cells) [3, 4] | Combined Assay [3, 4] | GSH adduct HML [3, 4] | Hepatocyte cellular toxicity [3, 4] | MitoTox 3T3 [3, 4] | TDI CYP3A4 [3, 4] | hBSEP inhibition [3, 4]
Ambiguous DILI-concern: DILI severity category [2]

CC[C@H]1OC(=O)[C@H](C)[C@@H](O[C@H]2C[C@@](C)(OC)[C@@H](O)[C@H](C)O2)[C@H](C)[C@@H](O[C@@H]2O[C@H](C)C[C@H](N(C)C)[C@H]2O)[C@](C)(OC)C[C@@H](C)C(=O)[C@H](C)[C@@H](O)[C@]1(C)O [clarithromycin]
vMost-DILI-Concern: DILI severity category [2]
-VE: In vivo DILI ([1]; […]) | Cellular toxicity (3T3 cells) [3, 4] | GSH adduct HML [3, 4] | Hepatocyte cellular toxicity [3, 4] | TDI CYP3A4 [3, 4] | hBSEP inhibition [3, 4]
+VE: In vivo DILI ([1]; ref Schadt 2015) | DILI +VE (5-8), DILI -VE (-4) [2] | Combined Assay [3, 4] | MitoTox 3T3 [3, 4]

CCOC(=O)COC1CCN(C(=O)[C@H](C)NC(=O)c2ccc(C(=N)NO)cc2)CC1 [sibrafiban]
-VE: In vivo DILI ([1]; ref Schadt 2015) | Cellular toxicity (3T3 cells) [3, 4] | Combined Assay [3, 4] | GSH adduct HML [3, 4] | Hepatocyte cellular toxicity [3, 4] | MitoTox 3T3 [3, 4] | TDI CYP3A4 [3, 4] | hBSEP inhibition [3, 4]

CCCC(C)(COC(N)=O)COC(=O)NC(C)C (stereo not shown) [carisoprodol]
-VE: In vivo DILI ([1]; ref Schadt 2015) | DILI +VE (5-8), DILI -VE (-4) [2] | Cellular toxicity (3T3 cells) [3] | Combined Assay [3] | GSH adduct HML [3] | Hepatocyte cellular toxicity [3] | MitoTox 3T3 [3] | TDI CYP3A4 [3] | hBSEP inhibition [3]
vNo-DILI-Concern: DILI severity category [2]

COC(=O)C1=C(C)NC(C)=C(C(=O)OC(C)C)C1c1cccc2nonc12 (stereo not shown) [isradipine]
+VE: DILI +VE (5-8), DILI -VE (-4) [2] | Cellular toxicity (3T3 cells) [3, 4] | GSH adduct HML [3, 4] | Hepatocyte cellular toxicity [3, 4] | hBSEP inhibition [3, 4]
-VE: In vivo DILI ([1]; ref Schadt 2015) | Combined Assay [3, 4] | MitoTox 3T3 [3, 4] | TDI CYP3A4 [3, 4]
vLess-DILI-Concern: DILI severity category [2]

Cc1ncc2n1-c1ccc(Cl)cc1C(c1ccccc1F)=NC2 [midazolam]
-VE: In vivo DILI ([1]; ref Schadt 2015) | DILI +VE (5-8), DILI -VE (-4) [2] | Cellular toxicity (3T3 cells) [3] | TDI CYP3A4 [3]
vNo-DILI-Concern: DILI severity category [2]
+VE: Combined Assay [3] | GSH adduct HML [3] | Hepatocyte cellular toxicity [3] | MitoTox 3T3 [3] | hBSEP inhibition [3]

CN1c2c(oc(=O)n(-c3ccccn3)c2=O)-c2ccccc2S1(=O)=O [droxicam]
vMost-DILI-Concern: DILI severity category [2]
+VE: In vivo DILI ([1]; ref Schadt 2015) | DILI +VE (5-8), DILI -VE (-4) [2]
-VE: Cellular toxicity (3T3 cells) [3, 4] | Combined Assay [3, 4] | GSH adduct HML [3, 4] | Hepatocyte cellular toxicity [3, 4] | MitoTox 3T3 [3, 4] | TDI CYP3A4 [3, 4] | hBSEP inhibition [3, 4]

COC(=O)N[C@H](C(=O)N[C@@H](Cc1ccccc1)[C@@H](O)CN(Cc1ccc(-c2ccccn2)cc1)NC(=O)[C@@H](NC(=O)OC)C(C)(C)C)C(C)(C)C [atazanavir]
-VE: MitoTox 3T3 [3, 4] | TDI CYP3A4 [3, 4]
+VE: In vivo DILI ([1]; ref Schadt 2015) | DILI +VE (5-8), DILI -VE (-4) [2] | Cellular toxicity (3T3 cells) [3, 4] | Combined Assay [3, 4] | GSH adduct HML [3, 4] | Hepatocyte cellular toxicity [3, 4] | hBSEP inhibition [3, 4]
vLess-DILI-Concern: DILI severity category [2]

OC(CNCC(O)C1CCc2cc(F)ccc2O1)C1CCc2cc(F)ccc2O1 (stereo not shown) [nebivolol]
-VE: In vivo DILI ([1]; ref Schadt 2015) | DILI +VE (5-8), DILI -VE (-4) [2] | Cellular toxicity (3T3 cells) [3, 4] | Combined Assay [3, 4] | GSH adduct HML [3, 4] | Hepatocyte cellular toxicity [3, 4] | MitoTox 3T3 [3, 4] | TDI CYP3A4 [3, 4] | hBSEP inhibition [3, 4]
Ambiguous DILI-concern: DILI severity category [2]

Cc1ccc(-c2nc3ccc(C)cn3c2CC(=O)N(C)C)cc1 [zolpidem]
Ambiguous DILI-concern: DILI severity category [2]
-VE: In vivo DILI ([1]; […]) | In vivo DILI ([1]; ref Schadt 2015) | DILI +VE (5-8), DILI -VE (-4) [2] | Cellular toxicity (3T3 cells) [3] | Combined Assay [3] | GSH adduct HML [3] | Hepatocyte cellular toxicity [3] | MitoTox 3T3 [3] | TDI CYP3A4 [3] | hBSEP inhibition [3]

CN(C)CCC=C1c2ccccc2C=Cc2ccccc21 [cyclobenzaprine]
+VE: DILI +VE (5-8), DILI -VE (-4) [2] | Cellular toxicity (3T3 cells) [3, 4]
-VE: In vivo DILI ([1]; ref Schadt 2015) | Combined Assay [3, 4] | GSH adduct HML [3, 4] | Hepatocyte cellular toxicity [3, 4] | MitoTox 3T3 [3, 4] | TDI CYP3A4 [3, 4] | hBSEP inhibition [3, 4]
vLess-DILI-Concern: DILI severity category [2]

COCCCOc1cc(C[C@@H](C[C@H](N)[C@@H](O)C[C@H](C(=O)NCC(C)(C)C(N)=O)C(C)C)C(C)C)ccc1OC [aliskiren]
-VE: Cellular toxicity (3T3 cells) [3, 4] | Combined Assay [3, 4] | GSH adduct HML [3, 4] | Hepatocyte cellular toxicity [3, 4] | MitoTox 3T3 [3, 4] | TDI CYP3A4 [3, 4] | hBSEP inhibition [3, 4]

COc1ccccc1OCC(O)CN1CCN(CC(=O)Nc2c(C)cccc2C)CC1 (stereo not shown) [ranolazine]
-VE: In vivo DILI ([1]; ref Schadt 2015) | DILI +VE (5-8), DILI -VE (-4) [2] | Cellular toxicity (3T3 cells) [3] | GSH adduct HML [3] | Hepatocyte cellular toxicity [3] | TDI CYP3A4 [3] | hBSEP inhibition [3]
vNo-DILI-Concern: DILI severity category [2]
+VE: Combined Assay [3] | MitoTox 3T3 [3]

CN1C(C(=O)Nc2nccs2)=C(O)c2ccccc2S1(=O)=O [sudoxicam]
-VE: Cellular toxicity (3T3 cells) [3] | Combined Assay [3] | GSH adduct HML [3] | Hepatocyte cellular toxicity [3] | MitoTox 3T3 [3] | TDI CYP3A4 [3] | hBSEP inhibition [3]

COc1ccc2[nH]c([S+]([O-])Cc3ncc(C)c(OC)c3C)nc2c1 (stereo not shown) [omeprazole]
vLess-DILI-Concern: DILI severity category [2]
-VE: In vivo DILI ([1]; […])
+VE: DILI +VE (5-8), DILI -VE (-4) [2]
